Experimental data as given in ChEMBL document CHEMBL5729675, “Sulfonamide compound or salt thereof” (2023).

target: Ribonucleotide reductase (Homo sapiens, UniProt P23921+Q7LG56); experiment: Human RNR Inhibition Effect: The inhibitory activity against the ribonucleotide reduction reaction (hereinafter referred to as RNR reaction) of the test compound was determined by measuring the formation of deoxycytidine diphosphate (hereinafter referred to as dCDP) from cytidine diphosphate (hereinafter referred to as CDP) by the following method.Human M1 subunit and human M2 subunit (mutant …
Sequence (P23921 whole entry, looked up): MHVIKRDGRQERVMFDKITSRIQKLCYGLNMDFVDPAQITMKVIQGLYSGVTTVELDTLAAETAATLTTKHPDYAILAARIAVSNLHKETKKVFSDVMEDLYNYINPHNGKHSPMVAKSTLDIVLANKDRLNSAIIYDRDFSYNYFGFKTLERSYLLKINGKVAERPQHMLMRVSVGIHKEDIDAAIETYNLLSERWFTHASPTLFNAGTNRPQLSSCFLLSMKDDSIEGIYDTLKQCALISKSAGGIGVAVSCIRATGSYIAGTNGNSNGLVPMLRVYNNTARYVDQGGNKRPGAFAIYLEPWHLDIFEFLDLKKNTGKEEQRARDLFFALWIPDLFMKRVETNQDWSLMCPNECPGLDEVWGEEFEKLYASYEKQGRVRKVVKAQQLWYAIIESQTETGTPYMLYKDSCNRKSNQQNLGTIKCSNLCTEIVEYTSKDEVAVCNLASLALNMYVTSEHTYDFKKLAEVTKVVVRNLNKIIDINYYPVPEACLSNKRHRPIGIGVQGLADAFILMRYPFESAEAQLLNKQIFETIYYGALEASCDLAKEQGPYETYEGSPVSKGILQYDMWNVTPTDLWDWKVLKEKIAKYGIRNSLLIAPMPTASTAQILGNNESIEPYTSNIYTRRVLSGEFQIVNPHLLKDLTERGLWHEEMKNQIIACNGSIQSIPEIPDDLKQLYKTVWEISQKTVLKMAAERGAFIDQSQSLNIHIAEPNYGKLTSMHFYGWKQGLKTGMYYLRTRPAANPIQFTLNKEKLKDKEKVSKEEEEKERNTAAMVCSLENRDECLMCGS
Sequence (Q7LG56 whole entry, looked up): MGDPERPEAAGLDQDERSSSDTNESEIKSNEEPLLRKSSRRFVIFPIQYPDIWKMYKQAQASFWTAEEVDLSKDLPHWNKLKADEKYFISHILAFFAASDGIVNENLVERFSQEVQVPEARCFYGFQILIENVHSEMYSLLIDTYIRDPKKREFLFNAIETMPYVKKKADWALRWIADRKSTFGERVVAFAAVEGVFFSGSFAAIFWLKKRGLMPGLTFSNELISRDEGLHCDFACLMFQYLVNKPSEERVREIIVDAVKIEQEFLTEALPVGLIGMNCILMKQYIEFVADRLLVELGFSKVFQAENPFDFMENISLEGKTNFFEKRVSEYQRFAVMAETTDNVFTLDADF

IC50 [nM] | SMILES
270 | Cc1ccc(F)c([C@@H](C)[C@H](NS(=O)(=O)c2ccc([N+](=O)[O-])cc2)c2n[nH]c(=O)o2)c1C
300 | COc1ccc(-c2ccc(F)c([C@@H](C)[C@H](NS(=O)(=O)c3ccc(Cl)cc3OC)c3n[nH]c(=O)o3)c2C)cc1
490 | COc1cc(Cl)ccc1S(=O)(=O)N[C@H](c1n[nH]c(=O)o1)[C@H](C)c1c(F)ccc(-c2ccc(Cl)cc2)c1C
940 | COc1cc(Cl)ccc1S(=O)(=O)N[C@H](c1n[nH]c(=O)o1)[C@H](C)c1c(F)ccc(-c2cc(F)cc(F)c2)c1C
60 | Cc1c(Br)ccc(F)c1[C@@H](C)[C@H](NS(=O)(=O)c1ccc(Cl)c2c1OCCC2(C)N)c1n[nH]c(=O)o1 (some centres undefined)
170 | Cc1c(-c2cnn(C)c2)ccc(F)c1[C@@H](C)[C@H](NS(=O)(=O)c1ccc(Cl)cc1C(N)=O)c1n[nH]c(=O)o1
160 | C[C@H](c1c(F)ccc2ccccc12)[C@H](NS(=O)(=O)c1ccc(Cl)c2c1OCCC2F)c1n[nH]c(=O)o1 (some centres undefined)
180 | COc1cc(Cl)ccc1S(=O)(=O)N[C@H](c1n[nH]c(=O)o1)[C@H](C)c1c(F)ccc(-c2c[nH]nc2C)c1C
410 | Cc1ccc(F)c([C@@H](C)[C@H](NS(=O)(=O)c2ccc(C#N)cc2)c2n[nH]c(=O)o2)c1C
600 | COc1cc(Cl)ccc1S(=O)(=O)N[C@H](c1n[nH]c(=O)o1)[C@H](C)c1c(F)ccc(-c2ccc(N3CCCCC3)nc2)c1C
130 | Cc1ccc(F)c([C@@H](C)[C@H](NS(=O)(=O)c2ccc(Br)cc2C(N)=O)c2n[nH]c(=S)o2)c1C
110 | COc1c(S(=O)(=O)N[C@H](c2n[nH]c(=O)o2)[C@H](C)c2c(F)ccc(C)c2C)ccc(Cl)c1C(C)=O
640 | Cc1ccc(F)c([C@@H](C)[C@H](NS(=O)(=O)c2ccc(Br)c(C#N)c2)c2n[nH]c(=O)o2)c1C
250 | COc1cc(Cl)ccc1S(=O)(=O)N[C@H](c1noc(=O)[nH]1)[C@H](C)c1c(F)ccc(C)c1C
190 | COc1cc(Cl)ccc1S(=O)(=O)N[C@H](c1n[nH]c(=O)o1)[C@H](C)c1c(F)ccc(-c2ccc(N3CCOCC3)nc2)c1C
50 | Cc1ccc(F)c([C@@H](C)[C@H](NS(=O)(=O)c2ccc(Cl)cc2C(N)=S)c2n[nH]c(=O)o2)c1C
170 | CCn1cc(-c2ccc(F)c([C@@H](C)[C@H](NS(=O)(=O)c3ccc(Cl)cc3OC)c3n[nH]c(=O)o3)c2C)cn1
310 | COC(=O)c1c(Cl)ccc(S(=O)(=O)N[C@H](c2n[nH]c(=S)o2)[C@H](C)c2cccc3c2CCC3)c1Cl
280 | COc1ncc(-c2ccc(F)c([C@@H](C)[C@H](NS(=O)(=O)c3ccc(Cl)cc3OC)c3n[nH]c(=O)o3)c2C)cn1
790 | Cc1cccc([C@@H](C)[C@H](NS(=O)(=O)c2ccc(Cl)c3c2OCC=C3)c2n[nH]c(=O)o2)c1C
100 | Cc1ccc(F)c([C@@H](C)[C@H](NS(=O)(=O)c2ccc(Br)cc2OC(F)(F)F)c2n[nH]c(=O)o2)c1C
220 | COc1cc(Cl)ccc1S(=O)(=O)N[C@H](c1n[nH]c(=O)o1)[C@H](C)c1c(F)ccc(-c2cnn(C3CC3)c2)c1C
540 | COc1cc(Cl)ccc1S(=O)(=O)N[C@H](c1n[nH]c(=O)o1)[C@H](C)c1c(F)ccc(-c2cncnc2)c1C

Second part, the compound before the results:

SMILES | IC50 [nM]
Cc1ccc(F)c([C@@H](C)[C@H](NS(=O)(=O)c2ccc(Cl)c(-c3cnn(C)c3)c2)c2n[nH]c(=O)o2)c1C | 220
COc1cc(Cl)ccc1S(=O)(=O)N[C@H](c1n[nH]c(=O)o1)[C@H](C)c1c(F)ccc(-c2ccc(Cl)nc2)c1C | 340
COc1cc(Cl)ccc1S(=O)(=O)N[C@H](c1n[nH]c(=O)o1)[C@H](C)c1c(F)ccc(-c2cnn(C(F)F)c2)c1C | 160
COC(=O)c1cc(S(=O)(=O)N[C@H](c2n[nH]c(=S)o2)[C@H](C)c2cccc3c2CCC3)ccc1Cl | 830
COc1cc(Cl)ccc1S(=O)(=O)N[C@H](c1n[nH]c(=O)o1)[C@H](C)c1c(F)ccc(-c2cnn(C3CCC3)c2)c1C | 220
COc1cc(Cl)ccc1S(=O)(=O)N[C@H](c1n[nH]c(=O)o1)[C@H](C)c1c(F)ccc(-c2cncc(C(=O)N3CCOCC3)c2)c1C | 420
COc1ccc(-c2cc(S(=O)(=O)N[C@H](c3n[nH]c(=O)o3)[C@H](C)c3c(F)ccc(C)c3C)ccc2Cl)cc1 | 720
COc1cc(Cl)ccc1S(=O)(=O)N[C@H](c1n[nH]c(=O)o1)[C@H](C)c1c(F)ccc(-c2cc[nH]n2)c1C | 290
COc1cc(Cl)ccc1S(=O)(=O)N[C@H](c1n[nH]c(=O)o1)[C@H](C)c1c(F)ccc(-c2cnn(C)c2)c1C | 90
COc1cc(Cl)ccc1S(=O)(=O)N[C@H](c1n[nH]c(=O)o1)[C@H](C)c1c(F)ccc(-c2cn(C)nc2C)c1C | 280
COc1cc(Cl)ccc1S(=O)(=O)N[C@H](c1n[nH]c(=O)o1)[C@H](C)c1c(F)ccc(-c2cnc3c(c2)OCCN3C)c1C | 220
COc1cc(C#N)ccc1S(=O)(=O)N[C@H](c1n[nH]c(=O)o1)[C@H](C)c1c(F)ccc(C)c1C | 90
COc1ccc(-c2ccc(F)c([C@@H](C)[C@H](NS(=O)(=O)c3ccc(Cl)cc3OC)c3n[nH]c(=O)o3)c2C)cn1 | 260
COc1cc(Cl)ccc1S(=O)(=O)N[C@H](c1n[nH]c(=O)o1)[C@H](C)c1c(F)ccc(-c2cn[nH]c2)c1C | 160
COc1cc(Cl)ccc1S(=O)(=O)N[C@H](c1n[nH]c(=S)[nH]1)[C@H](C)c1c(F)ccc(C)c1C | 460
Cc1ccc(F)c([C@@H](C)[C@@H](c2n[nH]c(=O)o2)N(C)S(=O)(=O)c2ccc(Cl)cc2C(N)=O)c1C | 80
COc1cc(Cl)ccc1S(=O)(=O)N[C@H](c1n[nH]c(=O)o1)[C@H](C)c1c(F)ccc(-c2cccnc2)c1C | 340
COc1ccccc1-c1ccc(C(N)=O)c(S(=O)(=O)N[C@H](c2n[nH]c(=O)o2)[C@H](C)c2c(F)ccc(C)c2C)c1 | 250
Cc1ccc(F)c([C@@H](C)[C@H](NS(=O)(=O)c2cc(-c3nnco3)ccc2C(N)=O)c2n[nH]c(=O)o2)c1C | 90
Cc1c(Cl)ccc(F)c1[C@@H](C)[C@H](NS(=O)(=O)c1ccc(Cl)c2c1OCCN2C)c1n[nH]c(=O)o1 | 130
COc1cc(C(N)=O)ccc1S(=O)(=O)N[C@H](c1n[nH]c(=O)o1)[C@H](C)c1c(F)ccc(C)c1C | 420
